# Measurements as given in patent US20160289678A1, “USE OF MICRORNA 146-A IN THE DIAGNOSIS, TREATMENT AND PREVENTION OF PICORNAVIRUS INFECTION AND MICRORNA 146-A ANTAGONISTS” (priority 2013, published 2016).
# “Also recorded” adds a separate entry of the source.
# Tests used:
# [1] = tested on: mEV71; assay: LNA antagomiR injection in EV71 infection mouse model: mice survival; format: in vivo, C57BL/6 mice
# From the text: (§1) The sequence of LNA antagomiR-146a used in the example is 5′-[…]-3′ (SEQ ID NO:20). Even though the importance of miR-146a in EV71 pathogenesis was clearly elucidated by using miR-146a^−/− mice model, however, the therapeutic potential of miR-146a silencing should be practically evaluated in EV71 infection mouse model. LNA antagomiR-146a, designed locked nucleic acid, was first injected intraperitoneally to evaluate the potential adverse events caused by LNA antagomiRs. […] After making sure the safety of LNA antagomiRs, we next introduced LNA AntagomiR-146a into wild-type mice before or after virus infection as indicated and monitored clinical symptoms of mice daily. […] To verify whether attenuation of virus-induced miR-146a by LNA antagomiR-146a could restore the expression of miR-146a targets, IRAK1 and TRAF6 in assayed organs were measured by Western blot.
# Mouse-adapted EV71 and LNA AntagomiRs Administration. C57BL/6 mice were provided by the Knockout Mouse Core Laboratory of National Taiwan University Center of Genomic Medicine, housed in specific pathogen-free animal rooms, and treated according to guidelines from the National Taiwan University College of Medicine and College of Public Health Institutional Animal Care and Use Committee (IACUC). Mouse-adapted EV71 (mEV71) was established referring to a report published by Wang, Y. F. in 2004. mEV71 was generated after four serial passages in neonate mice started from parental human EV71 Parental human EV71 was injected intraperitoneally and next generation mEV71, called 1st mEV71, was isolated from neonate mice brain tissue at 3 d.p.i. The isolated 1st mEV71 was then propagated in RD cells. The passage procedures were performed four times. To determine the 50% lethal dose (LD50), seven-day-old wild-type C57BL/6 mice were fed with indicated PFUs of mEV71. The survival of mice was monitored daily. For wild-type C57BL/6 mice and miR-146a−/− C57BL/6 mice inoculation, each group (n=9 to 13) housed in the same cage was infected with indicated PFUs of mEV71 through the oral route, and the control group was fed with culture medium. The animals were monitored daily, and clinical signs, weight and mortality were recorded. All mouse tissues were obtained from scarified mice with significant clinical illness signs or at 3 d.p.i. if mice had no significant illness signs. The tissues were further assayed for real-time RT-PCR, Western blot, plaque assay, immunohistochemistry staining, and so on. For LNA antagomiRs injection, wild-type mice were injected with LNA antagomiR-146a (1.2 mg/kg) or LNA antagomiR negative control (1.2 mg/kg) through the intraperitoneal route before or after virus infection as indicated and monitored daily. The institutional animal care and use committee (IACUC) approved all animal protocols.
# [2] = Potential adverse events of LNA antagomiRs: HE staining and blood chemistry (liver, kidney, serum); format: in vivo, mice; settings: intraperitoneal injection
# From the text: as §1
# Mouse-adapted EV71 and LNA AntagomiRs Administration. […] The survival of mice was monitored daily. […] The animals were monitored daily, and clinical signs, weight and mortality were recorded. […] For LNA antagomiRs injection, wild-type mice were injected with LNA antagomiR-146a (1.2 mg/kg) or LNA antagomiR negative control (1.2 mg/kg) through the intraperitoneal route before or after virus infection as indicated and monitored daily. […]
# [3] = tested on: miR-146a; assay: miR-146a expression in organs of mEV71-infected mice by real-time RT-PCR; format: in vivo, C57BL/6 mice; settings: treatment at 0 and 1 d.p.i.; particularly intestine, muscle and lung; vs mock infection / negative control
# From the text: as §1
# (§2) Individual Real-Time RT-PCR. Quantification of miR-146a, Homo RNU6B, mus U6 snRNA , mus IFNβ, and mus β-actin were performed using TaqMan microRNA individual assays or TaqMan gene expression assays (000468, 001093, 001973, Mm00439546_s1 and Mm00607939_s1; Life Technologies) according to the manufacturer's instructions. […] The threshold cycle (CT) is defined as the fractional cycle number at which the fluorescence passes the fixed threshold. […]
# (§3) Mouse-adapted EV71 and LNA AntagomiRs Administration. […] The survival of mice was monitored daily. […]
# [4] = tested on: IRAK1 and TRAF6; assay: IRAK1 and TRAF6 expression in organs of mEV71-infected mice by Western blot; format: in vivo, C57BL/6 mice; settings: specifically heart, lung and muscle
# From the text: as §1
# Western Blot. Cells or tissues were harvested in RIPA lysis buffer [50 mM Tris-HCl (pH 7.4), 150 mM NaCl, 1 mM EDTA, 1% Triton X-100, 0.1% SDS, 1% sodium deoxycholate, 1 mM PMSF, and protease inhibitor cocktail], and the protein concentration was measured by the BCA protein assay (BioRad). […]
# Mouse-adapted EV71 and LNA AntagomiRs Administration. […] The survival of mice was monitored daily. […] The animals were monitored daily, and clinical signs, weight and mortality were recorded. […]
# [5] = tested on: IFNβ; assay: IFNβ expression in EV71-infected mice by real-time RT-PCR; format: in vivo, C57BL/6 mice; settings: EV71-infected wild-type mice treated at 0 and 1 d.p.i., vs mock infection and negative control
# From the text: as §1, §2, §3
# [6] = tested on: IFNβ; assay: IFNβ mRNA expression in EV71-infected RD cells by real-time RT-PCR; format: cell-based, Human; settings: antagomiR-146a transfectants, EV71 infection
# [7] = tested on: IFNβ promoter; assay: IFNβ promoter luciferase assay in EV71-infected RD cells; format: cell-based, Human; settings: henceforth 4 h.p.i., compared with negative control or mock transfection
# Experimental: Luciferase Assay. All transfections were carried out in triplicate in 96-well plates. RD cells (1×10^4 per well) were seeded 24 h prior to transfection. The luciferase reporter constructs along with the control plasmids (pRL-TK Vector; Promega) were co-transfected into cells at the DNA ratio 5:1 in the presence of pSilencer miRNA expressing vectors (Life Technologies) as indicated by Lipofectamine LTX reagent (Life Technologies). After 48 h incubation, the Dual-Glo luciferase substrate (Promega) was added to each well and the luminescent signals were measured by Victor3 multilabel counter (PerkinElmer) according to the manufacturer's instructions. For IFNβ promoter assays, the reporter constructs were co-transfected with antagomiR-NC or antagomiR-146a into RD cells prior to virus infection. After 24 h incubation, all transfectants were infected with EV71 and assayed at indicated time points. The activity of Renilla luciferase was used as an internal control to normalize transfection efficiency.
# [8] = tested on: TRAF6 and IRAK1; assay: TRAF6 and IRAK1 in mEV71-infected MEF cells; format: cell-based; settings: MEF cells transfected, then mEV71 infection; vs antagomiR-NC
# From the text: MEF cells were infected with mEV71, followed by quantification of miR-146a using real-time RT-PCR (n=3). MI, mock infection. * P-value <0.05 as compared with mock infection. (b) mEV71 infection suppressed IRAK1 and TRAF6 expressions in protein level in MEF cells. (c) Predicted mus miR-146a BSs within mus IRAK1 and TRAF6 3′UTRs (the first nucleotide following the stop codon was designated as +1). (d) The effect of the ectopic miR-146a on the endogenous IRAK1 and TRAF6. MEF cells were transfected with the miR-146a overexpressing vector or negative control and assayed for IRAK1 and TRAF6 and for miR-146a by western blot and real-time RT-PCR, respectively (n=3). MT, mock transfection; NC, negative control. (e) AntagomiR-146a restored mEV71-induced suppression of TRAF6 and IRAK1 in MEF cells. MEF cells were transfected with antagomiR-146a or antagomiR-NC followed by mEV71 infection. All data presented are mean±s.d. and all P-values are calculated by Student's t-test.
# [9] = tested on: IRAK1 and TRAF6; assay: IRAK1 and TRAF6 Western blot in EV71-infected RD cells; format: cell-based, Human; settings: antagomiR transfected into host cells followed by virus infection
# [10] = tested on: IRAK1 and TRAF6; assay: IRAK1 and TRAF6 Western blot in EV71-infected Caco-2 cells; format: cell-based, Human; settings: compared with negative controls
Substance,"survival ([1]; injection 1 hour before virus infection (0 d.p.i.), 1.2 mg/kg intraperitoneal, 2*10^8 PFU mEV71) [%]","survival ([1]; injection at 1 d.p.i., 1.2 mg/kg intraperitoneal, 2*10^8 PFU mEV71) [%]","survival ([1]; injection at 2 d.p.i., 1.2 mg/kg intraperitoneal) [%]",survival ([1]; injection at 3 d.p.i.),"survival probability ([1]; intraperitoneal, injected before (0 d.p.i.) or after (1 and 2 d.p.i.) virus infection)","pathological changes (HE staining and blood chemistry of liver, kidney, serum) [2]",virus-induced miR-146a expression [3],IRAK1 and TRAF6 expression [4],IFNβ expression [5],IFNβ expression ([5]; listed as LNA is antagomiR-146a),IFNβ mRNA expression [6],IFNβ mRNA expression ([6]; listed as AntagomiR-146a),IFNβ promoter activity [7],IFNβ promoter activity ([7]; listed as AntagomiR-146a),mEV71-induced suppression of TRAF6 and IRAK1 [8],IRAK1 and TRAF6 expression [9],IRAK1 and TRAF6 expression ([9]; listed as AntagomiR-146a),IRAK1 and TRAF6 expression [10],IRAK1 and TRAF6 expression ([10]; listed as AntagomiR-146a)
"5′-AACCCATGGAATTCAGTTCTCA-3′ (LNA-modified, pattern not given here) [LNA antagomiR-146a, designed locked nucleic acid miR-146a antagonist, 22 nucleotides]",80,70,56,did not improve mice survival,improves survival probability,no significant pathological changes,neutralized; also recorded: dramatically suppressed,restored,regain of IFNβ production,induced,,,,,,,,,
"antagomiR-146a: specific antagomiR (Life Technologies) transfected into cells to neutralize virus-induced miR-146a (antisense AACCCATGGAATTCAGTTCTCA; LNA-modified, pattern not given here)",,,,,,,,,,,increased dramatically,eliminated the suppression,attenuated,restored,restored,restored,recovered remarkably,restored,restores
